Source: US20250042853A1, “BICYCLIC COMPOUND AND APPLICATION THEREOF” (BETTA PHARMACEUTICALS CO., LTD, priority 2021, published 2025)

These molecules were tested on VEGFA (assay: VEGFA ELISA assay (IC50)). Conditions: Homo sapiens, 786-0; 786-O cells, 24 h, VEGFA in culture supernatant by ELISA.
Type: cell-based
Experimental: 786-O cells in the logarithmic growth phase were inoculated into a 96-well plate at a cell concentration of 65,000 cells per ml of culture liquid, 180 μL per well. The compounds were diluted to the corresponding concentrations, and 20 μL of compound solutions of various concentrations were added to the corresponding cell wells, so that the final concentrations of the compounds were 1.5 nM, 4.6 nM, 13.7 nM, 41.2 nM, 123.5 nM, 370.4 nM, 1111.1 nM, 3333.3 nM, and 10000 nM, respectively. After culturing for 24 h, the cell culture supernatant was collected and the VEGFA concentration was determined using an ELISA kit (purchased from Abeam). Finally, the reaction was terminated and the absorbance value of each well was measured at a wavelength of 450 nm using an ELISA reader. The IC50 values were calculated by GraphPadPrism. CellTiter-Glo reagent was used to measure cell viability.

| SMILES | IC50 [nM] |
| --- | --- |
| O=S(=O)(c1cn(-c2ccc(F)c(C(F)F)c2)c2c1[C@H](O)C(F)(F)CC2)C(F)F [Example 6, (S)-1-(3-(difluoromethyl)-4-fluorophenyl)-3-((difluoromethyl)sulfonyl)-5,5-difluoro-4,5,6,7-tetrahydro-1H-indol-4-ol] | 11 |
| N#Cc1cc(-n2cc(S(=O)(=O)CF)c3c2CCC(F)(F)[C@H]3O)ccc1F [Example 11, (S)-5-(5,5-difluoro-3-((fluoromethyl)sulfonyl)-4-hydroxyl-4,5,6,7-tetrahydro-1H-indol-1-yl)-2-fluorobenzonitrile] | 27 |
| N#Cc1ccc(-n2cc(S(=O)(=O)CF)c3c2CCC(F)(F)[C@H]3O)cc1C(F)(F)F [Example 36, (S)-4-(5,5-difluoro-3-((fluoromethyl)sulfonyl)-4-hydroxyl-4,5,6,7-tetrahydro-1H-indol-1-yl)-2-(trifluoromethyl) benzonitrile] | 108 |
| N#Cc1ccc(-n2cc(S(=O)(=O)C(F)F)c3c2CCC(F)(F)[C@H]3O)cc1C#N [Example 39, (S)-4-(3-((difluoromethyl)sulfonyl)-5,5-difluoro-4-hydroxyl-4,5,6,7-tetrahydro-1H-indol-1-yl)phthalonitrile] | 140 |
| N#Cc1ccc(-n2cc(S(=O)(=O)C(F)(F)F)c3c2CCC(F)(F)[C@H]3O)cc1C#N [Example 42, (S)-4-(5,5-difluoro-4-hydroxyl-3-((trifluoromethyl)sulfonyl)-4,5,6,7-tetrahydro-1H-indol-1-yl)phthalonitrile] | 74 |
| N#CC(F)S(=O)(=O)c1cn(-c2ccc(F)c(C(F)F)c2)c2c1[C@H](O)C(F)(F)CC2 (stereo partly drawn) [Example 47, 2-(((S)-1-(3-(difluoromethyl)-4-fluorophenyl)-5,5-difluoro-4-hydroxyl-4,5,6,7-tetrahydro-1H-indol-3-yl)sulfonyl)-2-fluoroacetonitrile] | 8 |
| CCOC(=O)C(F)(F)c1cn(-c2ccc(F)c(C(F)F)c2)c2c1[C@H](O)C(F)(F)CC2 [Example 48, ethyl (S)-2-(1-(3-(difluoromethyl)-4-fluorophenyl)-5,5-difluoro-4-hydroxyl-4,5,6,7-tetrahydro-1H-indol-3-yl)-2,2-difluoroacetate] | 1620 |
| N#CC(F)(F)c1cn(-c2ccc(F)c(C(F)F)c2)c2c1[C@H](O)C(F)(F)CC2 [Example 49, (S)-2-(1-(3-(difluoromethyl)-4-fluorophenyl)-5,5-difluoro-4-hydroxyl-4,5,6,7-tetrahydro-1H-indol-3-yl)-2,2-difluoroacetonitrile] | 99 |

Now from value to molecule:

| IC50 [nM] | SMILES |
| --- | --- |
| 1250 | O[C@H]1c2c(-c3nccs3)cn(-c3ccc(F)c(C(F)F)c3)c2CCC1(F)F [Example 51, (S)-1-(3-(difluoromethyl)-4-fluorophenyl)-5,5-difluoro-3-(thiazol-2-yl)-4,5,6,7-tetrahydro-1H-indol-4-ol] |
| 639 | N#CC1(S(=O)(=O)c2cn(-c3ccc(F)c(C(F)F)c3)c3c2[C@H](O)C(F)(F)CC3)CC1 [Example 58, (S)-1-((1-(3-(difluoromethyl)-4-fluorophenyl)-5,5-difluoro-4-hydroxyl-4,5,6,7-tetrahydro-1H-indol-3-yl)sulfonyl)cyclopropane-1-nitrile] |
| 50 | O=S(=O)(c1cn(-c2ccc(F)c(C(F)F)c2)c2c1[C@H](O)[C@H](F)CC2)C(F)F [Example 63, (4S,5R)-1-(3-(difluoromethyl)-4-fluorophenyl)-3-((difluoromethyl)sulfonyl)-5-fluoro-4,5,6,7-tetrahydro-1H-indol-4-ol] |
| 33 | O=S(=O)(c1cn(-c2ccc(F)c(C(F)F)c2)c2c1[C@H](O)[C@@H](F)CC2)C(F)F [Example 64, (4S,5S)-1-(3-(difluoromethyl)-4-fluorophenyl)-3-((difluoromethyl)sulfonyl)-5-fluoro-4,5,6,7-tetrahydro-1H-indol-4-ol] |
| 30 | N#Cc1ccc(-n2cc(S(=O)(=O)C(F)(F)F)c3c2CCC[C@H]3O)cc1C(F)F [Example 65, (R)-2-(difluoromethyl)-4-(4-hydroxyl-3-((trifluoromethyl)sulfonyl)-4,5,6,7-tetrahydro-1H-indol-1-yl)benzonitrile] |
| 15 | N#Cc1cc(-n2c(F)c(-c3cccs3)c3c2CCC(F)(F)C3O)ccc1F (stereo not shown) [Example 106, 2-fluoro-5-(2,5,5-trifluoro-4-hydroxyl-3-(thien-2-yl)-4,5,6,7-tetrahydro-1H-indol-1-yl)benzonitrile] |

Same assay, conditions: Homo sapiens, 786-0; 786-O cells, 24 h, VEGFA in culture supernatant by ELISA; class symbols

| SMILES | IC50 [nM] |
| --- | --- |
| N#Cc1ccc(-n2cc(S(=O)(=O)C(F)F)c3c2CCC(F)(F)[C@H]3O)cc1C(F)(F)F [Example 34, (S)-4-(3-((difluoromethyl)sulfonyl)-5,5-difluoro-4-hydroxyl-4,5,6,7-tetrahydro-1H-indol-1-yl)-2-(trifluoromethyl)benzonitrile] | ≤ 500 |
| O=S(=O)(CF)c1cn(-c2ccc(F)c(Cl)c2)c2c1[C@H](O)C(F)(F)CC2 [Example 37, (S)-1-(3-chloro-4-fluorophenyl)-5,5-difluoro-3-((fluoromethyl)sulfonyl)-4,5,6,7-tetrahydro-1H-indol-4-ol] | ≤ 500 |
| N#Cc1cc(-n2cc(S(=O)(=O)C(F)(F)F)c3c2CCC(F)(F)[C@H]3O)ccc1Cl [Example 40, (S)-2-chloro-5-(5,5-difluoro-4-hydroxyl-3-((trifluoromethyl)sulfonyl)-4,5,6,7-tetrahydro-1H-indol-1-yl)benzonitrile] | ≤ 500 |
| N#Cc1ccc(-n2cc(C(F)(F)C(F)(F)F)c3c2CCC(F)(F)C3O)cc1C(F)F (stereo not shown) [Example 41, 4-(5,5-difluoro-4-hydroxyl-3-(perfluoroethyl)-4,5,6,7-tetrahydro-1H-indol-1-yl)-2-(difluoromethyl)benzonitrile] | ≤ 500 |
| N#Cc1ccc(-n2cc(S(=O)(=O)C(F)F)c3c2CCC(F)(F)[C@H]3O)cc1C(F)F [Example 43, (S)-2-(difluoromethyl)-4-(3-((difluoromethyl)sulfonyl)-5,5-difluoro-4-hydroxyl-4,5,6,7-tetrahydro-1H-indol-1-yl)benzonitrile] | ≤ 500 |
| N#Cc1ccc(-n2cc(S(=O)(=O)CF)c3c2CCC(F)(F)[C@H]3O)cc1C(F)F [Example 44, (S)-4-(5,5-difluoro-3-((fluoromethyl)sulfonyl)-4-hydroxyl-4,5,6,7-tetrahydro-1H-indol-1-yl)-2-(difluoromethyl) benzonitrile] | ≤ 500 |
| N#Cc1ccc(-n2cc(S(=O)(=O)CF)c3c2CCC(F)(F)[C@H]3O)cc1C#N [Example 45, (S)-4-(5,5-difluoro-3-((fluoromethyl)sulfonyl)-4-hydroxyl-4,5,6,7-tetrahydro-1H-indol-1-yl)phthalonitrile] | ≤ 500 |
| N#Cc1ccc(-n2cc(C(F)(F)C(F)(F)F)c3c2CCC(F)(F)[C@H]3O)cc1C#N [Example 46, (S)-4-(5,5-difluoro-4-hydroxyl-3-(perfluoroethyl)-4,5,6,7-tetrahydro-1H-indol-1-yl)phthalonitrile] | ≤ 500 |

Results, then the molecule that gave them:

| IC50 [nM] | SMILES |
| --- | --- |
| ≤ 500 | CC(C#N)S(=O)(=O)c1cn(-c2ccc(F)c(C(F)F)c2)c2c1[C@H](O)C(F)(F)CC2 (stereo partly drawn) [Example 57, 2-(((S)-1-(3-(difluoromethyl)-4-fluorophenyl)-5,5-difluoro-4-hydroxyl-4,5,6,7-tetrahydro-1H-indol-3-yl)sulfonyl) propanenitrile] |
| ≤ 500 | O=S(=O)(CF)c1cn(-c2ccc(F)c(C(F)F)c2)c2c1[C@@H](O)C(F)(F)CC2 [Example 61, (R)-1-(3-(difluoromethyl)-4-fluorophenyl)-5,5-difluoro-3-((fluoromethyl)sulfonyl)-4,5,6,7-tetrahydro-1H-indol-4-ol] |
| ≤ 500 | NC(=O)c1cn(-c2ccc(F)c(C(F)F)c2)c2c1[C@H](O)C(F)(F)CC2 [Example 62, (S)-1-(3-(difluoromethyl)-4-fluorophenyl)-5,5-difluoro-4-hydroxyl-4,5,6,7-tetrahydro-1H-indole-3-carboxamide] |
| 500 to 1500 | O[C@H]1c2c(C(F)(F)F)cn(-c3ccc(F)cc3F)c2CCC1(F)F [Example 72, (S)-1-(2,4-difluorophenyl)-5,5-difluoro-3-(trifluoromethyl)-4,5,6,7-tetrahydro-1H-indol-4-ol] |

The molecules below were run on 786-O-HIF2α-Luc cells (assay: Luciferase assay (HIF2α reporter gene cells)). Conditions: 18-20 h, luminescence.
Type: cell-based
Experimental: The luciferase LUC gene was stably transfected into 786-0 cells (purchased from ATCC) using Lipofectamine 3000 transfection reagent (purchased from Invitrogen) to construct HIF2α reporter gene cells (786-O-HIF2α-Luc cells). The experiment was performed when 786-O-HIF2α-Luc cells were in the logarithmic growth phase, the culture medium (RPMI MEDIUM 1640, purchased from Invitrogen) was discarded, and the cells were rinsed three times with PBS; trypsin (TrypLE, purchased from Invitrogen) was added to digest the cells, and the digestion was terminated with culture medium, 10% fetal bovine serum, 1% penicillin, and streptomycin. The cells were collected by centrifugation, and washed twice with PBS to remove phenol red in the culture medium. The cells were resuspended to an appropriate concentration. The cell density and viability were measured, to ensure that the cells with a viability of at least 90% were used in the assay.
The compounds at a gradient concentration were transferred into 384 wells using Echo550 (non-contact acoustic pipetting system, purchased from Labcyte), 25 nL/well. The cells were seeded into 384-well plates, with 4500 cells/well and 25 μL of culture medium, and the final concentrations of the compounds were 10000 nM, 3333 nM, 1111 nM, 370 nM, 123 nM, 41.1 nM, 13.7 nM, 4.6 nM, 1.5 nM, and 0.5 nM, respectively. The cells were cultured for 18-20 h under conditions of 37° C. and 5% CO2. Steady-Glo™ luciferase assay system (purchased from Promega) was added to a 384-well plate, 25 μL/well. Luminescence values were detected using Envision. The inhibition rate % was calculated based on the RLU (Record Luminescence) signal value of each well, and then the IC50 values of the corresponding compounds were calculated by fitting using Graphpad 8.0.
The IC50 data of the exemplary examples are provided in Table 2, where A stands for IC50≤0.1 μM; B stands for 0.1 μM<IC50≤0.5 μM; and C stands for IC50>0.5 μM.

| SMILES | IC50 [nM] |
| --- | --- |
| O=S(=O)(c1cn(-c2ccc(F)c(C(F)F)c2)c2c1[C@H](O)C(F)(F)CC2)C(F)F [Example 6, (S)-1-(3-(difluoromethyl)-4-fluorophenyl)-3-((difluoromethyl)sulfonyl)-5,5-difluoro-4,5,6,7-tetrahydro-1H-indol-4-ol] | 38 |

Same assay, conditions: 18-20 h, luminescence, class symbols

| SMILES | IC50 [nM] |
| --- | --- |
| N#Cc1cc(-n2cc(S(=O)(=O)CF)c3c2CCC(F)(F)[C@H]3O)ccc1F [Example 11, (S)-5-(5,5-difluoro-3-((fluoromethyl)sulfonyl)-4-hydroxyl-4,5,6,7-tetrahydro-1H-indol-1-yl)-2-fluorobenzonitrile] | 100 to 500 |
